These results are taken from US9757369B2, “Heterocyclic GSK-3 allosteric modulators” (Consejo Superior de Investigaciones Cientificas (CSIC), priority 2011, dated 2017).

The structures appear in SMILES notation. Entries after “also recorded” stand apart in the source; their conditions may differ.

In assay [1] the target is recombinant human GSK3 enzyme (GSK-3β) (Homo sapiens, UniProt P49841). Description: Measurement of the inhibition of GSK-3β (Kinase-Glo luminometric assay). Type of assay: biochemical. As to conditions: 25 μM substrate, 1 μM ATP, 30 min at 30 °C.
Protocol: The enzyme inhibition assays were performed using the luminometric methodology of Kinase-Glo®. […] The luminescent kinase kit (catalogue no. V6711) was obtained from Promega. The ATP and the other reagents were purchased from Sigma-Aldrich (St. Louis, Mo.).
The assays were performed in buffer using 96-well plates. 10 µl of the compound to be assayed (dissolved in DMSO at a concentration of 1 mM, and, in turn, dissolved in buffer to the concentration necessary for the experiment) and 10 µl (20 ng) of the enzyme are added to each well, followed by 20 µl of buffer containing 25 µM of the substrate and 1 µM of ATP. […] Following a half-hour incubation at 30° C., the enzymatic reaction is stopped with 40 µl of the Kinase-Glo® reagent. The luminescence is measured after ten minutes, using a POLARstar Optima multimode reader. The activity is proportional to the difference between the total ATP and the ATP consumed. The inhibitory activities were calculated as a function of the maximum activity, measured in the absence of inhibitor.
Assay [2] relates to GSK-3β. Put plainly: Study of the inhibition of GSK-3β as a function of enzyme-inhibitor pre-incubation time. As to conditions: different enzyme incubation times, two inhibitor concentrations. Type of assay: biochemical, human. The procedure: In order to determine the binding mode of these compounds, different kinetic studies were performed, varying the reaction times and the ATP concentration and the substrate concentration.

Another assay concerns RAW 264.7 cells. Description: Anti-inflammatory activity: nitrite production (Griess method) in LPS-stimulated RAW 264.7 cells. Type of assay: cell-based. As to conditions: 1.25, 2.5, 5 and 10 μM; 1 h pre-treatment, 0.4 μg/ml LPS 24 h. The procedure: A monolayer culture of RAW 264.7 cells growing in 96-well plates is used. The cells are treated for 1 h with the compounds evaluated. Subsequently, the inflammatory activity is stimulated with 0.4 µg/ml of LPS for 24 h. Once this time has elapsed, the production of nitrites is evaluated by means of the Griess method. Briefly, 50 µl of supernatant are transferred to 96-well plates and 50 µl of Griess reagent are added. The mixture is incubated for 15 minutes at room temperature and the absorbance at 520 nm is measured in a microplate reader.

Assay [3] relates to GSK-3β. Description: Kinetic study varying GS-2 peptide substrate concentration (double-reciprocal plot). The class given is biochemical, human. The note with it: GS-2 15.5 to 100 μM, ATP 1 μM, inhibitor 5 to 10 μM. The protocol: The GS-2 concentrations were varied from 15.5 to 100 µM, whereas the ATP concentration was kept constant at 1 µM. The concentrations of inhibitor (compound 6) used are shown in the plot.
On the other hand, we also studied the dependence of GSK-3β activity in the presence of these inhibitors as a function of the concentration of the substrate, the GS-2 peptide, used in the assays.

For assay [4], the target named is GSK-3β (Homo sapiens, UniProt P49841). Put plainly: Kinetic study varying ATP concentration (ADP-Glo Kinase Assay, double-reciprocal plot). Type of assay: biochemical. As to conditions: ATP 1 to 50 μM, GS-2 12.5 μM, inhibitor 5 to 10 μM. The procedure:
The ATP concentrations were varied from 1 to 50 µM, whereas the concentration of the GS-2 peptide was kept constant at 12.5 µM. The concentrations of inhibitor (compound 6) used are shown in the plot.
The kinetic studies conducted by varying the ATP concentration from 1 to 50 µM, and the concentration of inhibitor 6 from 5 to 10 µM, were performed using the ADP-Glo™ Kinase Assay.
In general terms: In ADP-Glo the light output rises with the ADP produced.

Regarding `CCCCCCCC(=O)NNC(=O)c1c(O)c2ccccc2n(C)c1=O` [Compound 3, 4-Hydroxy-1-methyl-N′-octanoyl-2-oxo-1,2-dihydroquinoline-3-carbohydrazide], the IC50 (usually the concentration needed to halve the response being measured) in assay [1] is 8.67 ± 0.4 µM.
As for `CCCCCCCCCCCC(=O)NNC(=O)c1c(O)c2ccccc2n(C)c1=O` [Compound 4, N′-Dodecanoyl-4-hydroxy-1-methyl-2-oxo-1.2-dihydroquinoline-3-carbohydrazide], the IC50 in assay [1] came out at 7.35 ± 0.23 µM.
For `CCCCCCCCCCCC(=O)NNC(=O)c1c(O)c2ccccc2n(CC)c1=O` [Compound 6, N′-Dodecanoyl-1-ethyl-4-hydroxy-2-oxo-1,2-dihydroquinoline-3-carbohydrazide], in the assay with GSK-3β [2], the “reversibility of enzyme inhibition” value is “reversible inhibitor”. Besides, the “decrease in nitrite release” value in the assay on RAW 264.7 cells is recorded as “dose-dependent effect on the decrease in nitrite release; also recorded: decrease in inflammatory activity”. Moreover, in the assay with GSK-3β [3], the “mode of inhibition versus substrate GS-2” value is reported as “substrate-non-competitive inhibitor”. Besides, the IC50 in assay [1] stood at 2.85 ± 0.36 µM. In addition, the “mode of inhibition versus ATP” value on GSK-3β [4] was “non-ATP-competitive inhibitor”.
For `CCCCCCCCCCCC(=O)NNC(=O)c1c(O)c2ccccc2n(CC2CC2)c1=O` [Compound 45, 1-(cyclopropylmethyl)-N′-dodecanoyl-4-hydroxy-2-oxo-1,2-dihydroquinoline-3-carbohydrazide], in assay [1], the IC50 is 5.25 ± 0.58 µM.
As to `CCCCCCCCCCCC(=O)NNC(=O)c1c(O)c2ccccc2n(Cc2ccccc2)c1=O` [Compound 46, 1-Benzyl-N′-dodecanoyl-4-hydroxy-2-oxo-1,2-dihydroquinoline-3-carbohydrazide], the IC50 in assay [1] was found to be 5.51 ± 0.27 µM.
For the compound `CCCCCCCC(=O)NNC(=O)c1c(O)c2cc(Br)ccc2n(C)c1=O` [Compound 49, 6-Bromo-4-hydroxy-1-methyl-N′-octanoyl-2-oxo-1,2-dihydroquinoline-3-carbohydrazide], the IC50 in assay [1] came out at 6.28 ± 0.33 µM.
Same read-out and setting: with `CCCCCCCCCCCC(=O)NNC(=O)c1c(O)c2cc(Br)ccc2n(C)c1=O` [Compound 50, 6-Bromo-N′-dodecanoyl-4-hydroxy-1-methyl-2-oxo-1,2-dihydroquinoline-3-carbohydrazide] the figure was 4.28 ± 0.5 µM.
As to `CCCCCCCC(=O)NNC(=O)c1c(O)c2cc(Br)ccc2n(CC)c1=O` [Compound 51, 6-Bromo-1-ethyl-4-hydroxy-N′-octanoyl-2-oxo-1,2-dihydroquinoline-3-carbohydrazide], in assay [1], the IC50 came out at 7.34 ± 0.2 µM.
Turning to `CCCCCCCCCCCC(=O)NNC(=O)c1c(O)c2cc(Br)ccc2n(CC)c1=O` [Compound 52, 6-Bromo-N′-dodecanoyl-1-ethyl-4-hydroxy-2-oxo-1,2-dihydroquinoline-3-carbohydrazide], in assay [1], the IC50 stood at 2.01 ± 0.18 µM.
Take `CCCCCCCC(=O)NNC(=O)c1c(O)c2cc(Cl)ccc2n(C)c1=O` [Compound 53, 6-Chloro-4-hydroxy-1-methyl-N′-octanoyl-2-oxo-1,2-dihydroquinoline-3-carbohydrazide]: in assay [1], the IC50 is 8.48 ± 0.3 µM.
On to `CCCCCCCCCCCC(=O)NNC(=O)c1c(O)c2cc(Cl)ccc2n(C)c1=O` [Compound 54, 6-Chloro-N′-dodecanoyl-4-hydroxy-1-methyl-2-oxo-1,2-dihydroquinoline-3-carbohydrazide], for which the IC50 in assay [1] is 5.95 ± 0.49 µM.
Still for that read-out and setting: with `CCCCCCCC(=O)NNC(=O)c1c(O)c2cc(Cl)ccc2n(CC)c1=O` [Compound 55, 6-Chloro-1-ethyl-4-hydroxy-N′-octanoyl-2-oxo-1,2-dihydroquinoline-3-carbohydrazide] the figure was 9.42 ± 0.23 µM; with `CCCCCCCCCCCC(=O)NNC(=O)c1c(O)c2cc(Cl)ccc2n(CC)c1=O` [Compound 56, 6-Chloro-N′-dodecanoyl-1-ethyl-4-hydroxy-2-oxo-1,2-dihydroquinoline-3-carbohydrazide], 3.18 ± 0.28 µM.
With `CCCCCCCC(=O)NNC(=O)c1c(O)c2ccc(Cl)cc2n(C)c1=O` [Compound 57, 7-Chloro-4-hydroxy-1-methyl-N′-octanoyl-2-oxo-1,2-dihydroquinoline-3-carbohydrazide], the IC50 in assay [1] turned out to be 6.66 ± 0.29 µM.
Consider `CCCCCCCCCCCC(=O)NNC(=O)c1c(O)c2ccc(Cl)cc2n(C)c1=O` [Compound 58, 7-Chloro-N′-dodecanoyl-4-hydroxy-1-methyl-2-oxo-1,2-dihydroquinoline-3-carbohydrazide], for which the IC50 in assay [1] stood at 4.03 ± 0.19 µM.
On the same count and under the same terms, to `CCCCCCCC(=O)NNC(=O)c1c(O)c2ccc(Cl)cc2n(CC)c1=O` [Compound 59, 7-Chloro-1-ethyl-4-hydroxy-N′-octanoyl-2-oxo-1,2-dihydroquinoline-3-carbohydrazide] belongs 4.83 ± 0.23 µM; to `CCCCCCCCCCCC(=O)NNC(=O)c1c(O)c2ccc(Cl)cc2n(CC)c1=O` [Compound 60, 7-Chloro-N′-dodecanoyl-1-ethyl-4-hydroxy-2-oxo-1,2-dihydroquinoline-3-carbohydrazide], 2.48 ± 0.26 µM.
In the case of `CCCCCCCC(=O)NNC(=O)c1c(O)c2ccc(Cl)cc2n(Cc2ccccc2)c1=O` [Compound 61, 1-Benzyl-7-chloro-4-hydroxy-N′-octanoyl-2-oxo-1,2-di hydroquinoline-3-carbohydrazide], in assay [1], the IC50 came to 5.96 ± 0.17 µM.
On to `CCCCCCCCCCCC(=O)NNC(=O)c1c(O)c2ccc(Cl)cc2n(Cc2ccccc2)c1=O` [Compound 62, 1-Benzyl-7-chloro-N′-dodecanoyl-4-hydroxy-2-oxo-1,2-dihydroquinoline-3-carbohydrazide], for which the IC50 in assay [1] was 5.99 ± 0.22 µM.
Still for that read-out and setting: to `CCCCCCCCCCCC(=O)N(Cc1ccccc1)NC(=O)c1c(O)c2ccccc2n(Cc2ccccc2)c1=O` [Compound 63, N′-1-dibenzyl-N′-dodecanoyl-4-hydroxy-2-oxo-1,2-dihydroquinoline-3-carbohydrazide] belongs 6.84 ± 0.51 µM.
